According to patent US10105331B2, “Substituted aromatic compounds and pharmaceutical compositions for the prevention and treatment of diabetes” (PROMETIC PHARMA SMT LIMITED, priority 2014, dated 2018):
Where “and” joins values, the source holds several entries; their conditions need not be identical. Equal values may be shown once. Blank lines part the entries; values can stand above or below the molecule they belong to.

Key:
[1] = system: uninephrectomized db/db mice; assay: Blood triglycerides level in serum of uninephrectomized db/db mice; format: in vivo; details: 10 or 50 mg/kg
Method: (§1) Male Lepr db (db/db) and age- and sex-matched control mice with the same genetic background (C57BL/6) were used. Animals were randomized using blood sugar measurement (5-hours starved) at week 6 and uninephrectomy (removal of right kidney) was performed. Sham animals (C57BL/6) underwent exposition of the right kidney. Animals that underwent the sham operation were given vehicle (saline) and were used as negative controls. C57BL/6 mice that were uninephrectomized were given vehicle and were used as positive controls. Db/db mice were treated with oral administration of compound I at 10 and 50 mg/kg per day for 105 days. Serum glucose was measured every two to four weeks.
It is known that blood triglycerides is often associated with diabetes. High triglyceride levels in the blood tend to coexist with low levels of HDL (“good”) cholesterol, contributing to a condition called diabetic dyslipidemia. It is also known that a combination of high triglycerides, low HDL and central obesity are the hallmarks of the metabolic syndrome, which occurs in a majority people with type 2 diabetes.

β-TC-6 cells = assay: Glucose-induced insulin secretion by β-TC-6 cells (insulin ELISA of supernatants); format: cell-based; details: for % Control (insulin secretion, individual values) / Average % Control (insulin secretion): β-TC-6 cells; for Insulin: glucose-induced insulin secretion by β-TC-6 cells, stimulation of 11 mM glucose, control 53
Method: β-TC-6 cells where used to determine if compounds according to the present invention were able to induce the production of insulin with or without stimulation with glucose. Briefly, β-TC-6 cells (200,000 cells/ml) were incubated in DMEM media and 15% heat inactivated serum in presence of absence of glucose (0.8M) with/without Compound I for 30 minutes and further incubated for 2 hours with a solution of Krebs containing 2.5, 11 and 25 mM glucose. Supernatants were collected and used for the detection of insulin (ELISA) performed as recommended by the supplier.

[2] = system: uninephrectomized db/db mice; assay: Diabetic mouse (db/db) model, uninephrectomized: blood glucose, insulin, glucose/insulin ratio, islet insulin staining; format: in vivo; details: for blood glucose level: 105 days
Method: as §1

[3] = glucose 11 mM, Compound I 40 μM
[4] = glucose 11 mM, Compound I 80 μM
[5] = 50 mg/kg per day oral, NX db/db mice
[6] = uninephrectomized db/db mice, dose not stated in legend

melting point: 225 to 230 °C
Structure (SMILES): CCCCCc1cc(CCCCC)cc(CC(=O)[O-])c1.[Na+] [Compound I, Sodium 2-[3,5-Dipentylphenyl]acetate]
blood triglyceride level in serum [1]: reduced the blood triglyceride level | % Control (insulin secretion, individual values) (β-TC-6 cells; [3]): 195.41 % Control and 187.16 % Control and 135.78 % Control and 149.35 % Control and 151.88 % Control and 143.13 % Control | Average % Control (insulin secretion) (β-TC-6 cells; [3]): 160.45 % Control | % Control (insulin secretion, individual values) (β-TC-6 cells; [4]): 192.66 % Control and 174.31 % Control and 203.67 % Control and 145.51 % Control and 129.29 % Control and 200.78 % Control | Average % Control (insulin secretion) (β-TC-6 cells; [4]): 174.37 % Control | Insulin (β-TC-6 cells): 76 ng/mL | % Control (insulin secretion, individual values) (β-TC-6 cells; no glucose, Compound I 40 μM): 53.76 % Control and 86.02 % Control and 47.31 % Control and 155.22 % Control and 135.63 % Control and 130.81 % Control | Average % Control (insulin secretion) (β-TC-6 cells; no glucose, Compound I 40 μM): 101.46 % Control | % Control (insulin secretion, individual values) (β-TC-6 cells; no glucose, Compound I 80 μM): 79.57 % Control and 38.71 % Control and 70.97 % Control and 123.28 % Control and 114.63 % Control and 177.33 % Control | Average % Control (insulin secretion) (β-TC-6 cells; no glucose, Compound I 80 μM): 100.75 % Control | glucose-induced insulin production in β-TC-6 cells (β-TC-6 cells; with or without glucose): increased with Compound I in presence of glucose only | blood glucose level ([2]; 10 mg/kg per day oral, compared to NX db/db): reduces blood glucose compare to NX db/db but stay stable over time | insulin level ([2]; 10 mg/kg per day oral, NX db/db mice): keeps a high insulin level (stabilization compare to Day 0) | blood glucose level [2, 5]: induces a significant decrease in blood glucose to a normal level | insulin level [2, 5]: reduces the insulin level close to a normal level | histoimmunostaining of insulin in the pancreatic islets ([2]; both concentrations (10 or 50 mg/kg), db/db Nx mice): reverses the loss of insulin detection | glucose/insulin ratio (insulin resistance) ([2]; day 33, uninephrectomized db/db mice): reduces the glucose/insulin ratio | glucose/insulin ratio (insulin resistance) ([2]; day 105, uninephrectomized db/db mice): reduces the glucose/insulin ratio | blood glucose level (FIG. 1 legend) [2, 6]: reduces blood glucose level down to normal level | insulin secretion (FIG. 2 legend) [2, 6]: reverses the fall of insulin secretion

Structure (SMILES): CCCCCCc1cc(CCCCCC)cc(CC(=O)[O-])c1.[Na+] [Compound II, Sodium Salt of 2-(3,5-Dihexylphenyl)acetic acid]
Insulin (β-TC-6 cells): 123 ng/mL

Structure (SMILES): CCCCCc1cc(CC(=O)[O-])cc(CCCCC)c1O.[Na+] [Compound V, Sodium Salt of 2-(4-Hydroxy-3,5-dipentylphenyl)acetic acid]
Insulin (β-TC-6 cells): 59 ng/mL

Structure (SMILES): CCCCCc1cc(CCCCC)c(O)c(CC(=O)[O-])c1.[Na+] [Compound III, Sodium Salt of 2-(2-Hydroxy-3,5-dipentylphenyl)acetic acid]
Insulin (β-TC-6 cells): 109 ng/mL

Structure (SMILES): CCCC/C=C/c1cc(/C=C/CCCC)cc(CC(=O)[O-])c1.[Na+] [Compound XII, Sodium Salt of 2-(3,5-Di((E)-hex-1-enyl)phenyl)acetic acid]
Insulin (β-TC-6 cells): 70 ng/mL

Structure (SMILES): CCC/C=C/c1cc(/C=C/CCC)cc(CC(=O)[O-])c1.[Na+] [Compound X, Sodium 2-[3,5-Di[(E)-Pent-1-enyl]phenyl]acetate]
Insulin (β-TC-6 cells): 102 ng/mL

Structure (SMILES): CCCCCCc1cc(CCCCCC)c(O)c(CC(=O)[O-])c1.[Na+] [Compound IV, Sodium Salt of 2-(3,5-Dihexyl-2-hydroxyphenyl)acetic acid]
Insulin (β-TC-6 cells): 147 ng/mL

Structure (SMILES): CCCCCc1cc(CCCCC)c(Cc2ccccc2)c(CC(=O)[O-])c1.[Na+] [Compound IX, Sodium Salt of 2-(2-Benzyl-3,5-dipentylphenyl)acetic Acid]
Insulin (β-TC-6 cells): 110 ng/mL

Structure (SMILES): CCCCCc1cc(CCCCC)cc(CCC(=O)[O-])c1.[Na+] [Compound XI, Sodium 3-[3,5-Dipentylphenyl]propanoate]
Insulin (β-TC-6 cells): 89 ng/mL

Structure (SMILES): CCCCCCc1cc(CC(=O)[O-])cc(CCCCCC)c1O.[Na+] [Compound VI, Sodium Salt of 2-(3,5-Dihexyl-4-hydroxyphenyl)acetic acid]
Insulin (β-TC-6 cells): 67 ng/mL

Structure (SMILES): CCCCCc1cc(CC(=O)[O-])cc(CCCCC)c1F.[Na+] [Compound VIII, Sodium Salt of 2-(4-Fluoro-3,5-dipentylphenyl)acetic acid]
Insulin (β-TC-6 cells): 64 ng/mL
